{"source": "patent CN101784271A", "about": "“孕激素和(6s)-5-甲基四氢叶酸的组合在治疗子宫内膜异位症并同时减轻治疗副作用以及降低怀孕初期的先天畸形的风险中的应用” (priority 2007, dated 2008)", "key": {"[1]": {"experiment": "Clinical study in endometriosis patients, pain by visual analogue scale (VAS)", "type": "in vivo, human", "settings": "over 6 months"}, "[2]": {"settings": "cited from earlier work"}, "[3]": {"settings": "attributed to partial androgenic action, not progestational activity; cited from earlier work"}, "[4]": {"system": "ovulation (排卵)", "settings": "daily dose; no test or source given; cited from earlier work"}, "[5]": {"settings": "2 mg dienogest daily, 24 weeks, endometriosis patients"}}}
{"smiles": "C[C@]12CCC3=C4CCC(=O)C=C4CC[C@H]3[C@@H]1CC[C@@]2(O)CC#N", "note": "[DNG]", "values": [{"measurement": "change in pain (VAS) at end of treatment compared with start of study", "setting": "[1]; DNG oral 2 mg/d (124 patients) or LA 3.75 mg s.c. every 4 weeks (128 patients), endometriosis diagnosed by laparoscopy", "result": -47.5, "unit": "mm"}, {"measurement": "statistical comparison of efficacy, DNG versus LA", "setting": "[1]; DNG oral 2 mg/d vs LA 3.75 mg s.c. every 4 weeks", "result": "不劣于LA"}, {"measurement": "intolerable menstruation", "setting": "[2]; [5]", "result": "没有报道不可耐受的月经"}, {"measurement": "patients reporting irregular menstruation", "setting": "[2]; [5]", "result": "≤ 90", "unit": "%"}, {"measurement": "treatment result compared with danazol or GnRH agonist", "setting": "[2]; [5]", "result": "相当"}]}
{"smiles": "C#C[C@]1(O)CC[C@H]2[C@@H]3CCC4=CC(=O)CC[C@@H]4[C@H]3CC[C@@]21CC", "note": "[左炔诺孕酮]", "values": [{"measurement": "effect on bone metabolism", "setting": "[3]", "result": "对骨代谢的正面影响"}]}
{"smiles": "C#C[C@]1(O)CC[C@H]2[C@@H]3CCC4=Cc5oncc5C[C@]4(C)[C@H]3CC[C@@]21C", "note": "[达那唑]", "values": [{"measurement": "side effects of standard endometriosis treatment", "setting": "[2]; human, in vivo", "result": "显著的雄激素效应"}]}
{"smiles": "CC(=O)O[C@]1(C(C)=O)CC[C@H]2[C@@H]3C=C(Cl)C4=CC(=O)CC[C@]4(C)[C@H]3CC[C@@]21C", "note": "[醋酸氯地孕酮]", "values": [{"measurement": "ovulation inhibition dose", "setting": "[4]", "result": 1.7, "unit": "mg"}]}
{"smiles": "CC(=O)O[C@]1(C(C)=O)CC[C@H]2[C@@H]3C=C(Cl)C4=CC(=O)[C@@H]5C[C@@H]5[C@]4(C)[C@H]3CC[C@@]21C", "note": "[醋酸环丙孕酮]", "values": [{"measurement": "ovulation inhibition dose", "setting": "[4]", "result": 1, "unit": "mg"}]}
